target: T1, Human Kv1.5 channels (Homo sapiens, UniProt P22460); assay: Kv1.5 currents in Xenopus oocytes, two-microelectrode voltage clamp; format: cell-based; settings: human Kv1.5 expressed in Xenopus laevis oocytes; voltage jumps 500 ms to 0 mV and 40 mV; room temperature; Hill equation
T1 construct: expressed in transfected cells; host or cells: Xenopus laevis oocytes injected with in vitro synthesized Kv1.5-encoding RNA
Protocol: Human Kv1.5 channels were expressed in Xenopus oocytes. For this purpose, firstly ooytes were isolated from Xenopus laevis and were defolliculated. Kv1.5-encoding RNA which had been synthesized in vitro was then injected into these oocytes. After 1-7 days of Kv1.5 protein expression, the Kv1.5 currents were measured on the oocytes by the two-microelectrode voltage clamp technique. The Kv1.5 channels were for this purpose usually activated with voltage jumps lasting 500 ms to 0 mV and 40 mV. A solution of the following composition flowed through the bath: NaCl 96 mM, KCl 2 mM, CaCl2 1.8 mM, MgCl2 1 mM, HEPES 5 mM (titrated to pH 7.4 with NaOH). These experiments were carried out at room temperature. The following were employed for data acquisition and analysis: geneclamp amplifier (Axon Instruments, Foster City, USA) and MacLab D/A converter and software (ADInstruments, Castle Hill, Australia). The compounds of the invention were tested by adding them in various concentrations to the bath solution. The effects of the compounds were calculated as percentage inhibition of the Kv1.5 control current which was obtained when no compound was added to the solution. The data were then extrapolated using the Hill equation in order to determine the inhibitory concentrations IC50 for the respective compounds.

T1 sequence (P22460 whole entry): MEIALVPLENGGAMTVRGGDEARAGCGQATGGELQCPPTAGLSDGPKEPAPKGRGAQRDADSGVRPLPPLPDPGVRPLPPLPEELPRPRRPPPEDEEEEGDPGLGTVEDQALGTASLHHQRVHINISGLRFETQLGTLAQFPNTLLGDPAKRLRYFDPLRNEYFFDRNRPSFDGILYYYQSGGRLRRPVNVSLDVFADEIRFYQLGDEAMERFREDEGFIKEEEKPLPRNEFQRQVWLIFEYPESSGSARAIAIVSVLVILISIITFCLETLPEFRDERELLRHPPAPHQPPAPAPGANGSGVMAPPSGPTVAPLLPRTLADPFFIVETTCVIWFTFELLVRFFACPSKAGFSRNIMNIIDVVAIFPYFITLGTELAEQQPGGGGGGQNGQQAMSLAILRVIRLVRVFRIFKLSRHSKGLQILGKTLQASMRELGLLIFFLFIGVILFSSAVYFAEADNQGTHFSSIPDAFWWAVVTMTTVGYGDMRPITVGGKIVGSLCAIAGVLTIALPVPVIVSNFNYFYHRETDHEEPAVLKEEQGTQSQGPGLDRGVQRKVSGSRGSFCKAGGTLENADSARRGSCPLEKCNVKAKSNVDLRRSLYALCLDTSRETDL

IC50 [µM] | SMILES
0.7 | Cc1ccc(S(=O)(=O)Nc2ccccc2C(=O)N(Cc2ccccc2)Cc2nccn2C)cc1 [Example 30]
2.6 | Cc1ccc(S(=O)(=O)Nc2ccccc2C(=O)N(Cc2ccccc2)CC2CCCCC2)cc1 [Example 31]
8.5 | Cc1ccc(S(=O)(=O)Nc2ccccc2C(=O)N(CCCn2ccnc2)Cc2ccccc2)cc1 [Example 32]
6.5 | Cc1ccc(S(=O)(=O)Nc2ccccc2C(=O)N(Cc2ccccc2)Cc2ccncc2)cc1 [Example 33]
3.1 | Cc1ccc(S(=O)(=O)Nc2ccccc2C(=O)N(Cc2cccnc2)CC2CC2)cc1 [Example 34]
2 | Cc1ccc(S(=O)(=O)Nc2ccccc2C(=O)N(Cc2ccccc2)Cc2nc3ccccc3[nH]2)cc1 [Example 35]
2 | Cc1ccc(S(=O)(=O)Nc2ccccc2C(=O)N(Cc2ccccc2)Cc2ccc(C)o2)cc1 [Example 36]
1.9 | Cc1ccc(S(=O)(=O)Nc2ccccc2C(=O)N(Cc2ccccc2)CC2CC2)cc1 [Example 37]
1.6 | Cc1ccc(S(=O)(=O)Nc2ccccc2C(=O)N(Cc2ccccc2)Cc2ccco2)cc1 [Example 38]
> 10 | Cc1ccc(S(=O)(=O)Nc2ccccc2C(=O)N(CCCn2ccnc2C)Cc2ccccc2)cc1 [Example 39]
0.8 | Cc1ccc(S(=O)(=O)Nc2cc(C)ccc2C(=O)N(Cc2ccccc2)Cc2nccn2C)cc1 [Example 40]
1.9 | COc1ccc(NS(=O)(=O)c2ccc(C)cc2)c(C(=O)N(Cc2ccccc2)Cc2nccn2C)c1 [Example 41]
5 | Cc1ccc(S(=O)(=O)Nc2ccccc2C(=O)N(CCc2ccccn2)CC2CC2)cc1 [Example 42]
5.4 | COc1ccc(NS(=O)(=O)c2cccc(C(F)(F)F)c2)c(C(=O)N(Cc2ccccc2)Cc2nccn2C)c1 [Example 43]
2.9 | O=C(c1ccccc1NS(=O)(=O)c1ccc(Cl)cc1)N(Cc1ccccc1)Cc1cccnc1 [Example 44]
2.5 | Cc1ccc(S(=O)(=O)Nc2ccc(Cl)cc2C(=O)N(Cc2ccccc2)Cc2cccnc2)cc1 [Example 45]
1.2 | Cc1ccc(S(=O)(=O)Nc2ccc(F)cc2C(=O)N(Cc2ccccc2)Cc2cccnc2)cc1 [Example 46]
4.7 | COc1ccc(S(=O)(=O)Nc2cccc(C)c2C(=O)N(Cc2ccccc2)Cc2cccnc2)cc1 [Example 47]
> 10 | Cc1ccc(S(=O)(=O)Nc2ccccc2C(=O)N(Cc2ccncc2)CC2CC2)cc1 [Example 48]
6.3 | Cc1ccc(S(=O)(=O)Nc2ccccc2C(=O)N(CCc2cccnc2)CC2CC2)cc1 [Example 49]
0.7 | COc1ccc(S(=O)(=O)Nc2ccccc2C(=O)N(Cc2ccccc2)Cc2cccnc2)cc1 [Example 50]
3.6 | CCC(Cc1ccccc1)NC(=O)c1cc(OC)ccc1NS(=O)(=O)c1ccc(C)cc1 (stereo not shown) [Example 51]
3 | CCC(Cc1ccccc1)NC(=O)c1ccccc1NS(=O)(=O)c1ccccc1 (stereo not shown) [Example 52]
2.5 | CCC(NC(=O)c1cc(OC)ccc1NS(=O)(=O)c1ccc(C)cc1)c1ccncc1 (stereo not shown) [Example 53]
4 | CCCCS(=O)(=O)Nc1ccc(C)cc1C(=O)NC1CCCCC1 [Example 54, 2-(Butylsulfonylamino)-N-cyclohexyl-5-methylbenzamide]

IC50 [µM] | SMILES
4.6 | CCCCS(=O)(=O)Nc1ccc(C)cc1C(=O)NC(C)c1ccccc1 (stereo not shown) [Example 55]
5 | CCCCS(=O)(=O)N(CC)c1ccccc1C(=O)N[C@@H](CC)c1ccccc1 [Example 57]
> 10 | CCCCS(=O)(=O)Nc1ccccc1C(=O)N[C@@H](CC)c1ccccc1 [Example 58]
1.7 | CC[C@H](NC(=O)c1ccccc1NS(=O)(=O)c1cccc(C)c1)c1ccccc1 [Example 59]
0.7 | CC[C@H](NC(=O)c1ccccc1NS(=O)(=O)c1ccc(C)cc1)c1ccccc1 [Example 60]
5.6 | CC[C@H](NC(=O)c1ccccc1NS(=O)(=O)c1ccc2ccccc2c1)c1ccccc1 [Example 61]
3.5 | CC[C@H](NC(=O)c1ccccc1NS(=O)(=O)c1cccc2ccccc12)c1ccccc1 [Example 62]
1.7 | CC[C@H](NC(=O)c1ccccc1NS(=O)(=O)c1cccc(OC)c1)c1ccccc1 [Example 63]
0.6 | CC[C@H](NC(=O)c1ccccc1NS(=O)(=O)c1ccc(OC)cc1)c1ccccc1 [Example 64]
4.8 | CC[C@H](NC(=O)c1ccccc1NS(=O)(=O)c1cccc2c(N(C)C)cccc12)c1ccccc1 [Example 65]
4 | CC[C@H](NC(=O)c1ccccc1NS(=O)(=O)c1ccc(C(F)(F)F)cc1)c1ccccc1 [Example 66]
5.8 | CC[C@H](NC(=O)c1ccccc1NS(=O)(=O)c1ccc(OC(F)(F)F)cc1)c1ccccc1 [Example 67]
2.9 | CC[C@H](NC(=O)c1ccccc1NS(=O)(=O)c1ccc(Cl)cc1)c1ccccc1 [Example 68]
1.3 | CC[C@H](NC(=O)c1ccccc1NS(=O)(=O)c1ccccc1)c1ccccc1 [Example 69]
3.8 | COc1cccc(S(=O)(=O)Nc2ccccc2C(=O)N(Cc2ccccc2)Cc2cccnc2)c1 [Example 70]
6.9 | CCCCS(=O)(=O)Nc1ccccc1C(=O)N(Cc1ccccc1)Cc1cccnc1 [Example 71]
5 | CCc1ccc(S(=O)(=O)Nc2ccccc2C(=O)N(Cc2ccccc2)Cc2cccnc2)cc1 [Example 72]
3.1 | CCCS(=O)(=O)Nc1ccccc1C(=O)N[C@@H](CC)c1ccccc1 [Example 73]
1.7 | CC[C@H](NC(=O)c1ccccc1NS(=O)(=O)CCC(C)C)c1ccccc1 [Example 74]
2.9 | Cc1cccc(S(=O)(=O)Nc2ccccc2C(=O)N(Cc2ccccc2)Cc2cccnc2)c1 [Example 75]
4.7 | CC[C@H](NC(=O)c1ccccc1NS(=O)(=O)c1ccc(C)cc1OC)c1ccccc1 [Example 76]
2.6 | CCc1ccc(S(=O)(=O)Nc2ccccc2C(=O)N[C@@H](CC)c2ccccc2)cc1 [Example 77]
0.7 | Cc1ccc(S(=O)(=O)Nc2ccccc2C(=O)N(Cc2ccccc2)Cc2cccnc2)cc1 [Example 79]
0.4 | Cc1ccc(S(=O)(=O)Nc2ccc(F)cc2C(=O)N(Cc2ccccc2)Cc2nccn2C)cc1 [Example 81]
3.2 | COc1cccc(CN(CC2CC2)C(=O)c2ccccc2NS(=O)(=O)c2ccc(C)cc2)c1 [Example 82]

IC50 [µM] | SMILES
1.9 | Cc1ccc(S(=O)(=O)Nc2ccccc2C(=O)N(Cc2ccccc2)Cc2cccn2C)cc1 [Example 83]
1 | Cc1ccc(S(=O)(=O)Nc2ccccc2C(=O)N(Cc2ccccc2)Cc2nccs2)cc1 [Example 84]
5.2 | Cc1ccc(S(=O)(=O)Nc2ccccc2C(=O)N(Cc2ccn[nH]2)CC2CC2)cc1 [Example 85]
1.8 | Cc1ccc(S(=O)(=O)Nc2ccccc2C(=O)N(Cc2ccccc2)Cc2ccc[nH]2)cc1 [Example 86]
6 | Cc1ccc(S(=O)(=O)Nc2ccccc2C(=O)N(Cc2cnc3ccccc3c2)CC2CC2)cc1 [Example 87]
3.9 | CCc1nc(C)c(CN(Cc2ccccc2)C(=O)c2ccccc2NS(=O)(=O)c2ccc(C)cc2)[nH]1 [Example 88]
3.2 | Cc1ccc(S(=O)(=O)Nc2ccccc2C(=O)N(Cc2ccccc2)Cc2nn(C)cc2Cl)cc1 [Example 89]
0.5 | CC[C@H](NC(=O)c1cc(OC)ccc1NS(=O)(=O)c1ccc(C)cc1)c1ccccc1 [Example 90]
0.8 | CCC(NC(=O)c1cc(OC)ccc1NS(=O)(=O)c1ccc(C)cc1)c1ccc(F)cc1 (stereo not shown) [Example 91]
0.9 | CCCC(NC(=O)c1cc(OC)ccc1NS(=O)(=O)c1ccc(C)cc1)c1ccccc1 (stereo not shown) [Example 92]
1.1 | COc1ccc(NS(=O)(=O)c2ccc(C)cc2)c(C(=O)NC(c2ccccc2)C2CC2)c1 (stereo not shown) [Example 93]
1 | O=C(NC(c1ccccc1)C1CC1)c1ccccc1NS(=O)(=O)c1ccccc1 (stereo not shown) [Example 94]
0.7 | COc1ccc(NS(=O)(=O)c2ccc(C)cc2)c(C(=O)N[C@@H](C)C2CCCCC2)c1 [Example 95]
1 | COc1cccc([C@H](C)NC(=O)c2cc(OC)ccc2NS(=O)(=O)c2ccc(C)cc2)c1 [Example 96]
0.9 | COc1ccc([C@H](C)NC(=O)c2cc(OC)ccc2NS(=O)(=O)c2ccc(C)cc2)cc1 [Example 97]
2 | C[C@@H](c1ccccc1)N(C)C(=O)c1ccccc1NS(=O)(=O)c1ccccc1 [Example 98]
0.9 | CC[C@@H](NC(=O)c1cc(OC)ccc1NS(=O)(=O)c1ccc(C)cc1)c1ccccc1 [Example 99]
1.6 | Cc1ccc(S(=O)(=O)Nc2ccc(F)cc2C(=O)N(Cc2ccccc2)CC2CCCO2)cc1 (stereo not shown) [Example 100]
0.9 | Cc1ccc(S(=O)(=O)Nc2ccc(F)cc2C(=O)N(Cc2ccccc2)Cc2cccc(C)n2)cc1 [Example 101]
0.7 | Cc1ccc(S(=O)(=O)Nc2ccc(F)cc2C(=O)N(Cc2ccccc2)Cc2ccn[nH]2)cc1 [Example 102]
1.4 | COc1ccc(NS(=O)(=O)c2ccc(C)cc2)c(C(=O)NC(C)(C)c2ccccc2)c1 [Example 103]
1 | COc1ccc(NS(=O)(=O)c2ccc(C)cc2)c(C(=O)NC(C)c2ccc(F)cc2)c1 (stereo not shown) [Example 104]
2.6 | C[C@H](c1ccccc1)N(C)C(=O)c1ccccc1NS(=O)(=O)c1ccccc1 [Example 105]
